Experimental data from paper PMC6409085, “Three odorant-binding proteins are involved in the behavioral response of Sogatella furcifera to rice plant volatiles” (PeerJ, 2019).
pIC50: −log10 of the molar value. Where “and” joins values, the source holds several entries; their conditions need not be identical. Equal entries are not always repeated.

Columns and labels:
S. furcifera adults = experiment: Y-tube olfactometer behavioral trials; assay type: in vivo, Sogatella furcifera; conditions: odorant 50 µL/L vs hexane
Method in brief: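 Single S. furcifera adults (2 days post-emergence, starved 0.5 h) chose between odorant (100 µL of 50 µL/L on filter paper) and hexane control in a glass Y-tube, charcoal-filtered humidified air 300 mL/min per arm, 25 ± 1 °C, 50% RH. Choice scored if insect passed half an arm and stayed >1 min within 10 min; 45 insects per compound, chi-squared test.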

SfurOBP2 = SfurOBP2 (Sogatella furcifera, UniProt V5T759); experiment: biochemical; assay type: binding
Method in brief: (§1)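 Fluorescence competitive binding with 1-NPN as reporter: 2.0 µM protein and 2.0 µM 1-NPN in 50 mM Tris-HCl pH 7.4, odorant added at 2–20 µM final. Excitation 337 nm, emission 390–490 nm read 2 min after addition, triplicates. Ki = IC50/(1 + [1-NPN]/K1-NPN).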

SfurOBP11 = SfurOBP11 (Sogatella furcifera, UniProt V5T6E3); experiment: biochemical; assay type: binding
Method in brief: as §1

SfurOBP3 = SfurOBP3 (Sogatella furcifera, UniProt V5T818); experiment: biochemical; assay type: binding; conditions: for Fluorescence competitive binding assay, fluorescence intensity: OBP3, three replicate columns
Method in brief: as §1

SfurOBP1 = SfurOBP1 (Sogatella furcifera, UniProt V5T8N5); experiment: biochemical; assay type: binding; conditions: for Fluorescence competitive binding assay, fluorescence intensity: OBP1, three replicate columns
Method in brief: as §1

Chain of SfurOBP3 (V5T818 entry or part of it): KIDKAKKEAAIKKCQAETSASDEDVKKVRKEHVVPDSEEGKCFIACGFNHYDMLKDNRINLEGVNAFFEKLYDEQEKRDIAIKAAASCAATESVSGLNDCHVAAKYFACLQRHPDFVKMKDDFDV
Chain of SfurOBP11 (V5T6E3 entry or part of it): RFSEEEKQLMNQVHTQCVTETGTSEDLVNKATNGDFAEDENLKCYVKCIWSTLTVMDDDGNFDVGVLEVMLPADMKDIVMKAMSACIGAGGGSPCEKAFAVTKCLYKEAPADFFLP
Chain of SfurOBP2 (V5T759 entry or part of it): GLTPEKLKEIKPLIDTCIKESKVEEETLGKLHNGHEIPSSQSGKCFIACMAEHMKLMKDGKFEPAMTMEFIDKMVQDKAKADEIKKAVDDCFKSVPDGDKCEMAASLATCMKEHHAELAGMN
Chain of SfurOBP1 (V5T8N5 entry or part of it): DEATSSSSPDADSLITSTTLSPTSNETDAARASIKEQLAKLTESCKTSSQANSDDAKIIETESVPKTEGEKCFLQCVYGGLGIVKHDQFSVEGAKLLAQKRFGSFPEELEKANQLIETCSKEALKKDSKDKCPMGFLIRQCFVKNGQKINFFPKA

## CCCCCCCC [n-octane]
S. furcifera adults
  behavioral response of S. furcifera (in words): significantly repelled
S. furcifera adults; adults
  number of insects choosing hexane arm: 19
  number of insects choosing volatilies arm: 10
  number of insects failed (no choice): 11
SfurOBP2; SfurOBP2, protein and 1-NPN both 2.0 µM, competitor 2-20 µM, read-out: IC50
  pIC50: 4.70
SfurOBP2; ligand concentration 2 (unit not given), replicate column 1 of 3
  Fluorescence competitive binding assay, OBP2 (raw fluorescence reading): 18817
SfurOBP2; ligand concentration 2 (unit not given), replicate column 2 of 3
  Fluorescence competitive binding assay, OBP2 (raw fluorescence reading): 16925
SfurOBP2; ligand concentration 2 (unit not given), replicate column 3 of 3
  Fluorescence competitive binding assay, OBP2 (raw fluorescence reading): 16813
SfurOBP2; ligand concentration 4 (unit not given), replicate column 1 of 3
  Fluorescence competitive binding assay, OBP2 (raw fluorescence reading): 17604
SfurOBP2; ligand concentration 4 (unit not given), replicate column 2 of 3
  Fluorescence competitive binding assay, OBP2 (raw fluorescence reading): 17269
SfurOBP2; ligand concentration 4 (unit not given), replicate column 3 of 3
  Fluorescence competitive binding assay, OBP2 (raw fluorescence reading): 15635
SfurOBP2; ligand concentration 6 (unit not given), replicate column 1 of 3
  Fluorescence competitive binding assay, OBP2 (raw fluorescence reading): 16307
SfurOBP2; ligand concentration 6 (unit not given), replicate column 2 of 3
  Fluorescence competitive binding assay, OBP2 (raw fluorescence reading): 16391
SfurOBP2; ligand concentration 6 (unit not given), replicate column 3 of 3
  Fluorescence competitive binding assay, OBP2 (raw fluorescence reading): 15566
SfurOBP2; ligand concentration 8 (unit not given), replicate column 1 of 3
  Fluorescence competitive binding assay, OBP2 (raw fluorescence reading): 15494
SfurOBP2; ligand concentration 8 (unit not given), replicate column 2 of 3
  Fluorescence competitive binding assay, OBP2 (raw fluorescence reading): 15122
SfurOBP2; ligand concentration 8 (unit not given), replicate column 3 of 3
  Fluorescence competitive binding assay, OBP2 (raw fluorescence reading): 16014
SfurOBP2; ligand concentration 10 (unit not given), replicate column 1 of 3
  Fluorescence competitive binding assay, OBP2 (raw fluorescence reading): 15063
SfurOBP2; ligand concentration 10 (unit not given), replicate column 2 of 3
  Fluorescence competitive binding assay, OBP2 (raw fluorescence reading): 14978
SfurOBP2; ligand concentration 10 (unit not given), replicate column 3 of 3
  Fluorescence competitive binding assay, OBP2 (raw fluorescence reading): 15010
SfurOBP2; ligand concentration 12 (unit not given), replicate column 1 of 3
  Fluorescence competitive binding assay, OBP2 (raw fluorescence reading): 12606
SfurOBP2; ligand concentration 12 (unit not given), replicate column 2 of 3
  Fluorescence competitive binding assay, OBP2 (raw fluorescence reading): 12327
SfurOBP2; ligand concentration 12 (unit not given), replicate column 3 of 3
  Fluorescence competitive binding assay, OBP2 (raw fluorescence reading): 12885
SfurOBP2; ligand concentration 14 (unit not given), replicate column 1 of 3
  Fluorescence competitive binding assay, OBP2 (raw fluorescence reading): 12907
SfurOBP2; ligand concentration 14 (unit not given), replicate column 2 of 3
  Fluorescence competitive binding assay, OBP2 (raw fluorescence reading): 11889
SfurOBP2; ligand concentration 14 (unit not given), replicate column 3 of 3
  Fluorescence competitive binding assay, OBP2 (raw fluorescence reading): 12746
SfurOBP2; ligand concentration 16 (unit not given), replicate column 1 of 3
  Fluorescence competitive binding assay, OBP2 (raw fluorescence reading): 11757
SfurOBP2; ligand concentration 16 (unit not given), replicate column 2 of 3
  Fluorescence competitive binding assay, OBP2 (raw fluorescence reading): 11955
SfurOBP2; ligand concentration 16 (unit not given), replicate column 3 of 3
  Fluorescence competitive binding assay, OBP2 (raw fluorescence reading): 11106
SfurOBP2; ligand concentration 18 (unit not given), replicate column 1 of 3
  Fluorescence competitive binding assay, OBP2 (raw fluorescence reading): 11096
SfurOBP2; ligand concentration 18 (unit not given), replicate column 2 of 3
  Fluorescence competitive binding assay, OBP2 (raw fluorescence reading): 11451
SfurOBP2; ligand concentration 18 (unit not given), replicate column 3 of 3
  Fluorescence competitive binding assay, OBP2 (raw fluorescence reading): 11415
SfurOBP2; ligand concentration 20 (unit not given), replicate column 1 of 3
  Fluorescence competitive binding assay, OBP2 (raw fluorescence reading): 12132
SfurOBP2; ligand concentration 20 (unit not given), replicate column 2 of 3
  Fluorescence competitive binding assay, OBP2 (raw fluorescence reading): 10679
SfurOBP2; ligand concentration 20 (unit not given), replicate column 3 of 3
  Fluorescence competitive binding assay, OBP2 (raw fluorescence reading): 10932
SfurOBP11; SfurOBP11, protein and 1-NPN both 2.0 µM, competitor 2-20 µM, read-out: IC50
  pIC50: < 4.70
SfurOBP11; ligand concentration 2, replicate 1
  Fluorescence intensity, fluorescence competitive binding assay, OBP11: 29315
SfurOBP11; ligand concentration 2, replicate 2
  Fluorescence intensity, fluorescence competitive binding assay, OBP11: 29331
SfurOBP11; ligand concentration 2, replicate 3
  Fluorescence intensity, fluorescence competitive binding assay, OBP11: 31569
SfurOBP11; ligand concentration 4, replicate 1
  Fluorescence intensity, fluorescence competitive binding assay, OBP11: 28278
SfurOBP11; ligand concentration 4, replicate 2
  Fluorescence intensity, fluorescence competitive binding assay, OBP11: 30015
SfurOBP11; ligand concentration 4, replicate 3
  Fluorescence intensity, fluorescence competitive binding assay, OBP11: 31065
SfurOBP11; ligand concentration 6, replicate 1
  Fluorescence intensity, fluorescence competitive binding assay, OBP11: 29774
SfurOBP11; ligand concentration 6, replicate 2
  Fluorescence intensity, fluorescence competitive binding assay, OBP11: 29054
SfurOBP11; ligand concentration 6, replicate 3
  Fluorescence intensity, fluorescence competitive binding assay, OBP11: 29894
SfurOBP11; ligand concentration 8, replicate 1
  Fluorescence intensity, fluorescence competitive binding assay, OBP11: 27943
SfurOBP11; ligand concentration 8, replicate 2
  Fluorescence intensity, fluorescence competitive binding assay, OBP11: 28064
SfurOBP11; ligand concentration 8, replicate 3
  Fluorescence intensity, fluorescence competitive binding assay, OBP11: 27821
SfurOBP11; ligand concentration 10, replicate 1
  Fluorescence intensity, fluorescence competitive binding assay, OBP11: 27525
SfurOBP11; ligand concentration 10, replicate 2
  Fluorescence intensity, fluorescence competitive binding assay, OBP11: 26078
SfurOBP11; ligand concentration 10, replicate 3
  Fluorescence intensity, fluorescence competitive binding assay, OBP11: 27163
SfurOBP11; ligand concentration 12, replicate 1
  Fluorescence intensity, fluorescence competitive binding assay, OBP11: 24273
SfurOBP11; ligand concentration 12, replicate 2
  Fluorescence intensity, fluorescence competitive binding assay, OBP11: 26556
SfurOBP11; ligand concentration 12, replicate 3
  Fluorescence intensity, fluorescence competitive binding assay, OBP11: 26721
SfurOBP11; ligand concentration 14, replicate 1
  Fluorescence intensity, fluorescence competitive binding assay, OBP11: 22920
SfurOBP11; ligand concentration 14, replicate 2
  Fluorescence intensity, fluorescence competitive binding assay, OBP11: 23793
SfurOBP11; ligand concentration 14, replicate 3
  Fluorescence intensity, fluorescence competitive binding assay, OBP11: 23357
SfurOBP11; ligand concentration 16, replicate 1
  Fluorescence intensity, fluorescence competitive binding assay, OBP11: 19613
SfurOBP11; ligand concentration 16, replicate 2
  Fluorescence intensity, fluorescence competitive binding assay, OBP11: 20535
SfurOBP11; ligand concentration 16, replicate 3
  Fluorescence intensity, fluorescence competitive binding assay, OBP11: 20285
SfurOBP11; ligand concentration 18, replicate 1
  Fluorescence intensity, fluorescence competitive binding assay, OBP11: 26966
SfurOBP11; ligand concentration 18, replicate 2
  Fluorescence intensity, fluorescence competitive binding assay, OBP11: 26281
SfurOBP11; ligand concentration 18, replicate 3
  Fluorescence intensity, fluorescence competitive binding assay, OBP11: 26291
SfurOBP11; ligand concentration 20, replicate 1
  Fluorescence intensity, fluorescence competitive binding assay, OBP11: 26611
SfurOBP11; ligand concentration 20, replicate 2
  Fluorescence intensity, fluorescence competitive binding assay, OBP11: 26798
SfurOBP11; ligand concentration 20, replicate 3
  Fluorescence intensity, fluorescence competitive binding assay, OBP11: 25454
SfurOBP3; ligand concentration 2
  Fluorescence competitive binding assay, fluorescence intensity: 68170 and 67677 and 64610
SfurOBP3; ligand concentration 4
  Fluorescence competitive binding assay, fluorescence intensity: 67293 and 62720 and 65655
SfurOBP3; ligand concentration 6
  Fluorescence competitive binding assay, fluorescence intensity: 76553 and 64631 and 57162
SfurOBP3; ligand concentration 8
  Fluorescence competitive binding assay, fluorescence intensity: 71829 and 61798 and 56284
SfurOBP3; ligand concentration 10
  Fluorescence competitive binding assay, fluorescence intensity: 59554 and 55292 and 53530
SfurOBP3; ligand concentration 12
  Fluorescence competitive binding assay, fluorescence intensity: 55099 and 48687 and 52349
SfurOBP3; ligand concentration 14
  Fluorescence competitive binding assay, fluorescence intensity: 54529 and 46904 and 51749
SfurOBP3; ligand concentration 16
  Fluorescence competitive binding assay, fluorescence intensity: 48833 and 47113 and 45049
SfurOBP3; ligand concentration 18
  Fluorescence competitive binding assay, fluorescence intensity: 45841 and 47813 and 46502
SfurOBP3; ligand concentration 20
  Fluorescence competitive binding assay, fluorescence intensity: 46899 and 47179 and 42858
SfurOBP3; SfurOBP3, protein and 1-NPN both 2.0 µM, competitor 2-20 µM, read-out: IC50
  pIC50: < 4.70
SfurOBP1; ligand concentration 2 (μM)
  Fluorescence competitive binding assay, fluorescence intensity: 5925 and 7991 and 7456
SfurOBP1; ligand concentration 4 (μM)
  Fluorescence competitive binding assay, fluorescence intensity: 8340 and 7163 and 7902
SfurOBP1; ligand concentration 6 (μM)
  Fluorescence competitive binding assay, fluorescence intensity: 8616 and 7456 and 8995
SfurOBP1; ligand concentration 8 (μM)
  Fluorescence competitive binding assay, fluorescence intensity: 8020 and 7176 and 8029
SfurOBP1; ligand concentration 10 (μM)
  Fluorescence competitive binding assay, fluorescence intensity: 7070 and 8613 and 8224
SfurOBP1; ligand concentration 12 (μM)
  Fluorescence competitive binding assay, fluorescence intensity: 6680 and 8217 and 6786
SfurOBP1; ligand concentration 14 (μM)
  Fluorescence competitive binding assay, fluorescence intensity: 7048 and 6801 and 7552
SfurOBP1; ligand concentration 16 (μM)
  Fluorescence competitive binding assay, fluorescence intensity: 6817 and 7163 and 7002
SfurOBP1; ligand concentration 18 (μM)
  Fluorescence competitive binding assay, fluorescence intensity: 8094 and 8514 and 8878
SfurOBP1; ligand concentration 20 (μM)
  Fluorescence competitive binding assay, fluorescence intensity: 7869 and 7702 and 8440
SfurOBP1; SfurOBP1, protein and 1-NPN both 2.0 µM, competitor 2-20 µM, read-out: IC50
  pIC50: < 4.70
